Test results taken from patent US20240294595A1, “GLYCOPEPTIDES AND USES THEREOF” (Arizona Board of Regents on Behalf of the University of …, priority 2013, published 2024).
pEC50: −log10 of the molar value. “Also recorded” adds a separate entry of the source.

Columns and labels:
[1] = stability in mouse serum at 37° C. (FI-MSn); type: in vitro ADME; conditions: for degradation in mouse serum: mouse serum at 37° C.
Description: Chemical stability of the glycopeptides in vivo plays an important role in the deliverability of the drugs to the site(s) of action within the brain. It is also important to know what the chemical or metabolic instabilities are in order to inform the drug design process. […] Data were fitted using a single exponential decay model (R^2>0.71, in all cases).
The overall process was as follows: Flow-injection tandem mass spectrometry (FI-MS^n) was used to observe the degradation of the peptides and glycopeptides with a Thermo LCQ with electrospray ionization (ESI). The technique involved injection of a sample bolus of material in mouse serum via a six port valve with fluid flow delivered via a syringe pump, and subsequent electrospray ionization (ESI) followed by mass spectral analysis. Samples were diluted to a concentration of ˜5 μM of each PACAP analogue, and were incubated at 37° C. for times varying from 1 to 60 minutes. After samples had been incubated for the prescribed amount of time they were prepared for mass spectrometry analysis by withdrawing 10 microliters of solution and spiking with 1 microliter of a 10 μM solution of peptide internal standard (angiotensin II) in 50% acetic acid and subjecting them to a standard C18 zip tip desalting. These solutions, once eluted from the zip tip were diluted to 100 μL in 50:50 acetonitrile/water with 0.1% formic acid. Tandem mass spectrometry analysis (MS^3) was conducted to yield specific, quantitative signals proportional to the amount of PACAP analogue at each time point. This technique was also used with microdiasylate samples from a mouse after i.p. administration of PACAP1-27-S-G.

[2] = target: T1, VPAC1 (Homo sapiens, UniProt P32241); experiment: VPAC1 agonist data (Table 2); type: cell-based
T1 sequence (P32241 31-457): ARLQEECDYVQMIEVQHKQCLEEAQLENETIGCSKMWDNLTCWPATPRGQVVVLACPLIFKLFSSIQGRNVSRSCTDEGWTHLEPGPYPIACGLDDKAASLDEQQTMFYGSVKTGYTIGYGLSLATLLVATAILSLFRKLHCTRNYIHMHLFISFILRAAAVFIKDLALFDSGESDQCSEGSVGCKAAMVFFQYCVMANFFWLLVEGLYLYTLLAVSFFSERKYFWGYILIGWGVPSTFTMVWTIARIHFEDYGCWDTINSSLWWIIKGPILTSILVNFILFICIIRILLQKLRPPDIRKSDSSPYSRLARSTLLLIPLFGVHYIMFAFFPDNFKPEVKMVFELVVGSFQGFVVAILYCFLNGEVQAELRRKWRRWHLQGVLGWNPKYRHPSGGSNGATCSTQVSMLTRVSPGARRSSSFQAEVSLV

[3] = tested on: traumatic brain injury (TBI); experiment: mouse model of diffuse TBI (midline fluid percussion injury); type: in vivo
Protocol: Lead compound 2LS80Mel was evaluated for its neuroprotective potential in vivo utilizing a mouse model of traumatic brain injury (TBI). Mice were pretreated with either a single dose of 2LS80Mel (10 mg/kg i.p.) or sterile saline 30 min prior to being subjected to a midline fluid percussion injury. The mice were then evaluated for sleep-wake behavior (FIGS. 8A-C), motor skills and cognition, (FIGS. 8D-F), the presence of inflammatory markers, (FIGS. 8G-L), and microglial morphology (FIGS. 8M-O).

[4] = target: T2, VPAC2 (Homo sapiens, UniProt P41587); experiment: VPAC2 agonist data (Table 2); type: cell-based
T2 sequence (P41587 24-438): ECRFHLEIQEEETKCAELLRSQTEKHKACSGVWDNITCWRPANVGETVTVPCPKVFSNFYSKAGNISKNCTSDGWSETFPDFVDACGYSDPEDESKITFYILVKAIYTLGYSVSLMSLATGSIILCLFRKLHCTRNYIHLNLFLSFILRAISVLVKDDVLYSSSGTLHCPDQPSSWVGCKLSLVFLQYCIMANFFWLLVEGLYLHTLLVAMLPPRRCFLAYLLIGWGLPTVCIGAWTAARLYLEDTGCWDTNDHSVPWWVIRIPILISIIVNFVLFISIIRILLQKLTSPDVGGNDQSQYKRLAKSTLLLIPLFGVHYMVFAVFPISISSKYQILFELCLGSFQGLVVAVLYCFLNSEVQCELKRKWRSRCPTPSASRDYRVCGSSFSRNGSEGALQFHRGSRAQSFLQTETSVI

[5] = target: T3, PAC1 (Homo sapiens, UniProt P41586); experiment: PAC1 agonist data (Table 2); type: cell-based; parameters: host or cells: CHO (clonal line PAC1-CHO)
T3 sequence (P41586 21-468): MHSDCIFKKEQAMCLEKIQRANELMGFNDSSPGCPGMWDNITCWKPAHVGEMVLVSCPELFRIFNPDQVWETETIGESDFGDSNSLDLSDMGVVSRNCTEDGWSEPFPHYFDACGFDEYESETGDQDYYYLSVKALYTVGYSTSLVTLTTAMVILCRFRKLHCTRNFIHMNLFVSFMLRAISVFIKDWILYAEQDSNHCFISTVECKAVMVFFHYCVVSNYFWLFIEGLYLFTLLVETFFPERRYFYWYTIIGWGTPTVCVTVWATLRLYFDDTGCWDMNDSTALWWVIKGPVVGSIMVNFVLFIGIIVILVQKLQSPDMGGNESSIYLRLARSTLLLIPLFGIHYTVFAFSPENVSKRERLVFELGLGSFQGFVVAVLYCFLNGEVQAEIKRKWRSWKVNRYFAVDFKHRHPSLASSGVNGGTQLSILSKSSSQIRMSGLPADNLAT
Protocol: A custom DNA clone of the human PAC1 gene with 3 hemagglutinin (HA) tags inserted 3′ to the signal peptide sequence (to avoid proteolytic loss) was obtained from Genecopoeia (Rockville, MD). The construct was electroporated into Chinese Hamster Ovary (CHO) cells, and selected for with 500 μg/mL of G418. The resulting population was screened for high expressing clones, and one such clone selected for further analysis. […] This cell line was used for all molecular pharmacology experiments. The cells were maintained in DMEM/F12 with 10% heat-inactivated FBS, 1× penicillin/streptomycin, and 500 μg/mL G418, at 37° C. and 5% CO2.
All molecular pharmacology experiments were carried out using a FLIPR Tetra from Molecular Devices (Sunnyvale, CA), set to image calcium flux using the manufacturer's recommended settings and protocols. The day before an experiment, the PAC1-CHO cells were split into 384 well black walled, clear bottom microplates, 10,000 cells per well. The cells were recovered overnight in growth medium (as above). The next day, the growth medium was replaced with Calcium 6 dye (Molecular Devices) using the manufacturer recommended buffer with 2.5 mM probenecid. The cells were incubated for 2 hours in the culture incubator, and removed during the last 15 minutes to allow equilibration to room temperature. Compound as indicated below was added to the cells using a 384 tip block, with real time monitoring before, during, and 15 minutes after compound addition. The resulting calcium flux was recorded, and the maximum-minimum response over the entire observation time calculated and reported as the mean±SEM (4 wells per point).
For agonist mode experiments, compound was added in an 11 point concentration curve, with a vehicle control (buffer). […] The response was analyzed using a 3 variable non-linear curve fit, and the EC50 (nM) and EMax (%) calculated and reported (Prism, GraphPad, La Jolla, CA).

[6] = 10 mg/kg i.p. 30 min prior to TBI

| Structure (SMILES) | mouse serum t1/2 in vitro ([1]; compared to native / non-glycosylated peptide) | degradation in mouse serum [1] | pEC50 [2] | Emax [2] [%] | cumulative minutes slept in the first 6 h post-injury [3, 6] | sleep in the first dark period [3, 6] | CD11b+Ly6Chigh and CD11b+CD115+Ly6Chigh monocyte populations ([3]; 10 mg/kg i.p. prior to TBI) | sensorimotor deficits, modified NSS ([3]; 10 mg/kg i.p. prior to TBI) | Rotarod latency to fall ([3]; 10 mg/kg i.p. prior to TBI, 2, 5, 7 DPI) | levels of select inflammatory cytokines ([3]; 2LS80Mel-treated vs saline-treated) | microglial morphology ([3]; 2LS80Mel-treated vs saline-treated, 15 DPI) | behavioral, neurological, and motor skill deficits ([3]; overall, FIG. 8) | pEC50 [4] | Emax [4] [%] | pEC50 [5] | Emax [5] [%] |
| --- | --- | --- | --- | --- | --- | --- | --- | --- | --- | --- | --- | --- | --- | --- | --- | --- |
| CC[C@H](C)[C@H](NC(=O)CNC(=O)[C@H](CC(=O)O)NC(=O)[C@H](CO)NC(=O)[C@@H](N)Cc1c[nH]cn1)C(=O)N[C@@H](Cc1ccccc1)C(=O)N[C@H](C(=O)N[C@@H](CC(=O)O)C(=O)N[C@@H](CO)C(=O)N[C@@H](Cc1ccc(O)cc1)C(=O)N[C@@H](CO)C(=O)N[C@@H](CCCNC(=N)N)C(=O)N[C@@H](Cc1ccc(O)cc1)C(=O)N[C@@H](CCCNC(=N)N)C(=O)N[C@@H](CCCCN)C(=O)N[C@@H](CCC(N)=O)C(=O)N[C@@H](CCSC)C(=O)N[C@@H](C)C(=O)N[C@H](C(=O)N[C@@H](CCCCN)C(=O)N[C@@H](CCCCN)C(=O)N[C@@H](Cc1ccc(O)cc1)C(=O)N[C@@H](CC(C)C)C(=O)N[C@@H](C)C(=O)N[C@@H](C)C(=O)N[C@H](C(=O)N[C@@H](CC(C)C)C(=O)N[C@@H](CO[C@@H]1O[C@H](CO)[C@@H](O)[C@H](O)[C@H]1O)C(N)=O)C(C)C)C(C)C)[C@@H](C)O [PACAP1-27-S-G] | significant increase | degraded over 30 min | – | – | – | – | – | – | – | – | – | – | – | – | – | – |
| CC[C@H](C)[C@H](NC(=O)CNC(=O)[C@H](CC(=O)O)NC(=O)[C@H](CO)NC(=O)[C@@H](N)Cc1c[nH]cn1)C(=O)N[C@@H](Cc1ccccc1)C(=O)N[C@H](C(=O)N[C@@H](CC(=O)O)C(=O)N[C@@H](CO)C(=O)N[C@@H](Cc1ccc(O)cc1)C(=O)N[C@@H](CO)C(=O)N[C@@H](CCCNC(=N)N)C(=O)N[C@@H](Cc1ccc(O)cc1)C(=O)N[C@@H](CCCNC(=N)N)C(=O)N[C@@H](CCCCN)C(=O)N[C@@H](CCC(N)=O)C(=O)N[C@@H](CC(C)C)C(=O)N[C@@H](C)C(=O)N[C@H](C(=O)N[C@@H](CCCCN)C(=O)N[C@@H](CCCCN)C(=O)N[C@@H](Cc1ccc(O)cc1)C(=O)N[C@@H](CC(C)C)C(=O)N[C@@H](C)C(=O)N[C@@H](C)C(=O)N[C@H](C(=O)N[C@@H](CC(C)C)C(=O)N[C@@H](CO[C@@H]1O[C@H](CO[C@H]2O[C@H](CO)[C@H](O)[C@H](O)[C@H]2O)[C@@H](O)[C@H](O)[C@H]1O)C(N)=O)C(C)C)C(C)C)[C@@H](C)O [Compound 2LS80Mel] | – | – | 9.26 | 102 | slept comparable minutes to uninjured sham animals | prevented this injury-induced increase in sleep | not seen; also recorded: prevented increases in peripheral monocyte populations | prevented | comparable to uninjured shams at all time points post-injury | no significant differences | no significant differences | attenuated behavioral, neurological, and motor skill deficits | 8.03 | 86 | 9.24 | 99 |
| CC[C@H](C)[C@H](NC(=O)CNC(=O)[C@H](CC(=O)O)NC(=O)[C@H](CO)NC(=O)[C@@H](N)Cc1cnc[nH]1)C(=O)N[C@@H](Cc1ccccc1)C(=O)N[C@H](C(=O)N[C@@H](CC(=O)O)C(=O)N[C@@H](CO)C(=O)N[C@@H](Cc1ccc(O)cc1)C(=O)N[C@@H](CO)C(=O)N[C@@H](CCCNC(=N)N)C(=O)N[C@@H](Cc1ccc(O)cc1)C(=O)N[C@@H](CCCNC(=N)N)C(=O)N[C@@H](CCCCN)C(=O)N[C@@H](CCC(N)=O)C(=O)N[C@@H](CCSC)C(=O)N[C@@H](C)C(=O)N[C@H](C(=O)N[C@@H](CCCCN)C(=O)N[C@@H](CCCCN)C(=O)N[C@@H](Cc1ccc(O)cc1)C(=O)N[C@@H](CC(C)C)C(=O)N[C@@H](C)C(=O)N[C@@H](C)C(=O)N[C@H](C(=O)N[C@@H](CC(C)C)C(N)=O)C(C)C)C(C)C)[C@@H](C)O [PACAP1-27, PACAP-27, reference compound] | – | degraded over 30 min | – | – | – | – | – | – | – | – | – | – | – | – | – | – |
